What was measured:
[1] = system: Bel-7402; experiment: Cytotoxic activity against human Bel7402 cells incubated for 48 hrs by MTT assay; type: functional, cell-based; details: Bel-7402, 48 h
[2] = system: HepG2; experiment: Cytotoxic activity against human HepG2 cells incubated for 48 hrs by MTT assay; type: functional, cell-based; details: HepG2, 48 h
[3] = system: HeLa; experiment: Cytotoxic activity against human HeLa cells incubated for 48 hrs by MTT assay; type: functional, cell-based
[4] = system: SGC-7901; experiment: Cytotoxic activity against human SGC7901 cells incubated for 48 hrs by MTT assay; type: functional, cell-based; details: SGC-7901, 48 h
[5] = system: A549; experiment: Cytotoxic activity against human A549 cells incubated for 48 hrs by MTT assay; type: functional, cell-based; details: A549, 48 h
[6] = system: Mus musculus; experiment: Toxicity in nude mouse xenografted with human A549 cells assessed as induction of mouse fatality at 12 mg/kg, ig dosed every day; type: organism-based; details: in vivo, po
[7] = system: A549; experiment: Antitumor activity against human A549 cells xenografted in nude mouse assessed as tumor growth inhibition at 12 mg/kg, ig dosed every day; type: functional; details: A549, po, read-out: TGI
[8] = system: Mus musculus; experiment: Toxicity in nude mouse xenografted with human A549 cells assessed as change in body weight at 12 mg/kg, ig dosed every day (reference value: 26.5 g); type: organism-based; details: in vivo, po
[9] = system: Mus musculus; experiment: Toxicity in ip dosed nude mouse assessed as induction of mouse fatality; type: organism-based; details: in vivo
[10] = system: A549; experiment: Antitumor activity against human A549 cells xenografted in nude mouse assessed as relative tumor volume at 12 mg/kg, ig dosed every day relative to initial tumor volume; type: functional
[11] = system: Mus musculus; experiment: Toxicity in nude mouse xenografted with human A549 cells assessed as change in body weight at 12 mg/kg, ig dosed every day (reference value: 25.8 g); type: organism-based; details: in vivo, po
[12] = system: Mus musculus; experiment: Toxicity in nude mouse xenografted with human A549 cells assessed as change in body weight at 3 mg/kg, ig dosed every day (reference value: 26.8 g); type: organism-based; details: in vivo, po
[13] = system: Mus musculus; experiment: Toxicity in nude mouse xenografted with human A549 cells assessed as induction of mouse fatality at 3 mg/kg, ig dosed every day; type: organism-based; details: in vivo, po
[14] = system: A549; experiment: Antitumor activity against human A549 cells xenografted in nude mouse assessed as tumor growth inhibition at 6 mg/kg, ig dosed every day; type: functional; details: A549, po, read-out: TGI
[15] = system: A549; experiment: Antitumor activity against human A549 cells xenografted in nude mouse assessed as relative tumor volume at 6 mg/kg, ig dosed every day relative to initial tumor volume; type: functional
[16] = system: A549; experiment: Antitumor activity against human A549 cells xenografted in nude mouse assessed as tumor growth inhibition at 3 mg/kg, ig dosed every day; type: functional; details: A549, po, read-out: TGI
[17] = system: Mus musculus; experiment: Toxicity in nude mouse xenografted with human A549 cells assessed as induction of mouse fatality at 6 mg/kg, ig dosed every day; type: organism-based; details: in vivo, po
[18] = system: A549; experiment: Antitumor activity against human A549 cells xenografted in nude mouse assessed as tumor growth inhibition at 3 to 12 mg/kg, ig dosed every day; type: functional, organism-based
[19] = system: A549; experiment: Antitumor activity against human A549 cells xenografted in nude mouse assessed as relative tumor volume at 3 mg/kg, ig dosed every day relative to initial tumor volume; type: functional
[20] = system: Mus musculus; experiment: Toxicity in nude mouse xenografted with human A549 cells assessed as change in body weight at 6 mg/kg, ig dosed every day (reference value: 25.9 g); type: organism-based; details: in vivo, po

Row | SMILES | IC50 [1] [µM] | IC50 [2] [µM] | IC50 [3] [µM] | IC50 [4] [µM] | IC50 [5] [µM] | also measured
1 | CC1=C(OC(=O)N(C)c2ccccc2)C(=O)C=C2C1=CC=C1[C@@]2(C)CC[C@@]2(C)[C@@H]3C[C@](C)(C(=O)OCc4ccccc4)CC[C@]3(C)CC[C@]12C | 4.07 | 4.25 | 6.36 | 4.31 | 14.8 | –
2 | CCCCCOC(=O)[C@]1(C)CC[C@]2(C)CC[C@]3(C)C4=CC=C5C(=CC(=O)C(O)=C5C)[C@]4(C)CC[C@@]3(C)[C@@H]2C1 | 0.81 | 0.44 | 0.56 | 0.46 | 2.3 | –
3 | CCCCOC(=O)[C@]1(C)CC[C@]2(C)CC[C@]3(C)C4=CC=C5C(=CC(=O)C(O)=C5C)[C@]4(C)CC[C@@]3(C)[C@@H]2C1 | 1.01 | 1.05 | 0.79 | 0.73 | 1.36 | –
4 | CC1=C(OC(=O)N2CCCCC2C)C(=O)C=C2C1=CC=C1[C@@]2(C)CC[C@@]2(C)[C@@H]3C[C@](C)(C(=O)OCc4ccccc4)CC[C@]3(C)CC[C@]12C (stereo partly drawn) | 5.05 | 8.19 | 4.27 | 4.73 | 15 | –
5 | CC1=C(O)C(=O)C=C2C1=CC=C1[C@@]2(C)CC[C@@]2(C)[C@@H]3C[C@](C)(C(=O)OCc4ccccc4)CC[C@]3(C)CC[C@]12C | 0.2 | 0.8 | 0.46 | 0.31 | 2.33 | –
6 | CCOC(=O)COC(=O)[C@]1(C)CC[C@]2(C)CC[C@]3(C)C4=CC=C5C(=CC(=O)C(O)=C5C)[C@]4(C)CC[C@@]3(C)[C@@H]2C1 | 0.3 | 0.76 | 0.61 | 0.67 | 3.89 | –
7 | CC1=C(O)C(=O)C=C2C1=CC=C1[C@@]2(C)CC[C@@]2(C)[C@@H]3C[C@](C)(C(=O)O)CC[C@]3(C)CC[C@]12C [CELASTROL] | 0.44 | 0.58 | 0.84 | 0.87 | 2.12 | Activity [6]: Toxic; inhibition in vivo at 12 mg/kg [7]: 62%; Activity [8]: 25.5 g; Activity [9]: Toxic; fold change (FC) [10]: 0.84
8 | CC1=C(O)C(=O)C=C2C1=CC=C1[C@@]2(C)CC[C@@]2(C)[C@@H]3C[C@](C)(C(=O)OCOCc4ccccc4)CC[C@]3(C)CC[C@]12C | 0.51 | 0.37 | 1.12 | 0.3 | 3.78 | –
9 | CCC(C)OC(=O)[C@]1(C)CC[C@]2(C)CC[C@]3(C)C4=CC=C5C(=CC(=O)C(O)=C5C)[C@]4(C)CC[C@@]3(C)[C@@H]2C1 (stereo partly drawn) | 0.59 | 0.39 | 0.36 | 0.36 | 1.93 | –
10 | CCCOC(=O)[C@]1(C)CC[C@]2(C)CC[C@]3(C)C4=CC=C5C(=CC(=O)C(O)=C5C)[C@]4(C)CC[C@@]3(C)[C@@H]2C1 | 0.41 | 0.28 | 1.38 | 0.47 | 2.15 | –
11 | C=CCOC(=O)[C@]1(C)CC[C@]2(C)CC[C@]3(C)C4=CC=C5C(=CC(=O)C(O)=C5C)[C@]4(C)CC[C@@]3(C)[C@@H]2C1 | 0.63 | 0.31 | 0.31 | 0.33 | 1.49 | –
12 | CCN1CCN(C(=O)OC2=C(C)C3=CC=C4[C@@](C)(CC[C@@]5(C)[C@@H]6C[C@](C)(C(=O)OCc7ccccc7)CC[C@]6(C)CC[C@]45C)C3=CC2=O)CC1 | 2.44 | 4.61 | 1.59 | 2.88 | 5.91 | –
13 | CC1=C(O)C(=O)C=C2C1=CC=C1[C@@]2(C)CC[C@@]2(C)[C@@H]3C[C@](C)(C(=O)OC(C)C)CC[C@]3(C)CC[C@]12C | 0.43 | 0.32 | 1.75 | 0.47 | 3.41 | –
14 | COC(=O)[C@]1(C)CC[C@]2(C)CC[C@]3(C)C4=CC=C5C(=CC(=O)C(O)=C5C)[C@]4(C)CC[C@@]3(C)[C@@H]2C1 [PRISTIMERIN] | 1.16 | 0.78 | 0.32 | 0.63 | 1.03 | –
15 | CC1=C(O)C(=O)C=C2C1=CC=C1[C@@]2(C)CC[C@@]2(C)[C@@H]3C[C@](C)(C(=O)OCc4ccc(I)cc4)CC[C@]3(C)CC[C@]12C | 0.86 | 1.95 | 1.32 | 0.81 | 7.7 | –
16 | CC1=C(O)C(=O)C=C2C1=CC=C1[C@@]2(C)CC[C@@]2(C)[C@@H]3C[C@](C)(C(=O)OCC(C)C)CC[C@]3(C)CC[C@]12C | 0.53 | 0.34 | 0.41 | 0.24 | 1.07 | –
17 | CCCCCCOC(=O)[C@]1(C)CC[C@]2(C)CC[C@]3(C)C4=CC=C5C(=CC(=O)C(O)=C5C)[C@]4(C)CC[C@@]3(C)[C@@H]2C1 | 2.21 | 1.74 | 1.84 | 1.58 | 9.31 | –
18 | CCOC(=O)[C@]1(C)CC[C@]2(C)CC[C@]3(C)C4=CC=C5C(=CC(=O)C(O)=C5C)[C@]4(C)CC[C@@]3(C)[C@@H]2C1 | 0.92 | 0.49 | 0.83 | 0.24 | 1.44 | –
19 | CC(=O)N1CCN(C(=O)OC2=C(C)C3=CC=C4[C@@](C)(CC[C@@]5(C)[C@@H]6C[C@](C)(C(=O)OCc7ccccc7)CC[C@]6(C)CC[C@]45C)C3=CC2=O)CC1 | 4.23 | 5.79 | 1.35 | 3.64 | 7.2 | –
20 | CC1=C(O)C(=O)C=C2C1=CC=C1[C@@]2(C)CC[C@@]2(C)[C@@H]3C[C@](C)(C(=O)OCc4ccc(Br)cc4)CC[C@]3(C)CC[C@]12C | 0.52 | 0.66 | 0.87 | 0.81 | 3.07 | –
21 | CC1=C(OC(=O)N2CCOCC2)C(=O)C=C2C1=CC=C1[C@@]2(C)CC[C@@]2(C)[C@@H]3C[C@](C)(C(=O)OCc4ccccc4)CC[C@]3(C)CC[C@]12C | 1.56 | 1.36 | 1.55 | 1.78 | 9.35 | –
22 | CC1=C(O)C(=O)C=C2C1=CC=C1[C@@]2(C)CC[C@@]2(C)[C@@H]3C[C@](C)(C(=O)OCc4ccc(C)cc4)CC[C@]3(C)CC[C@]12C | 0.63 | 0.43 | 1.05 | 0.7 | 3.12 | –
23 | CC1=C(OC(=O)N2CCN(Cc3ccccc3)CC2)C(=O)C=C2C1=CC=C1[C@@]2(C)CC[C@@]2(C)[C@@H]3C[C@](C)(C(=O)OCc4ccccc4)CC[C@]3(C)CC[C@]12C | 5.17 | 9.9 | 18 | 11.7 | 8.85 | –
24 | CC1=C(OC(=O)N2CCCCC2)C(=O)C=C2C1=CC=C1[C@@]2(C)CC[C@@]2(C)[C@@H]3C[C@](C)(C(=O)OCc4ccccc4)CC[C@]3(C)CC[C@]12C | 3.22 | 7.43 | 2.82 | 3.04 | 12.1 | –
25 | CC1=C(O)C(=O)C=C2C1=CC=C1[C@@]2(C)CC[C@@]2(C)[C@@H]3C[C@](C)(C(=O)OCc4ccc([N+](=O)[O-])cc4)CC[C@]3(C)CC[C@]12C | 0.24 | 0.44 | 0.41 | 0.51 | 2.01 | –
26 | CC1=C(OC(=O)N2CCN(C)CC2)C(=O)C=C2C1=CC=C1[C@@]2(C)CC[C@@]2(C)[C@@H]3C[C@](C)(C(=O)OCc4ccccc4)CC[C@]3(C)CC[C@]12C | 1.02 | 2.61 | 2.31 | 1.28 | 5.18 | Activity [11]: 26.9 g; Activity [6]: Non-Toxic; inhibition in vivo at 12 mg/kg [7]: 71%; Activity [12]: 26.5 g; Activity [13]: Non-Toxic; inhibition in vivo at 6 mg/kg [14]: 57.5%; fold change (FC) [15]: 0.63; inhibition in vivo at 3 mg/kg [16]: 46.1%; Activity [17]: Non-Toxic; TGI [18]: Dose-dependent effect; fold change (FC) [10]: 0.55; fold change (FC) [19]: 0.76; Activity [20]: 27 g
27 | CC1=C(O)C(=O)C=C2C1=CC=C1[C@@]2(C)CC[C@@]2(C)[C@@H]3C[C@](C)(C(=O)OCc4cccc(Cl)c4)CC[C@]3(C)CC[C@]12C | 0.37 | 0.87 | 0.42 | 0.31 | 3.25 | –

From ChEMBL document CHEMBL4033734, “Synthesis of 3- and 29-substituted celastrol derivatives and structure-activity relationship studies of their cytotoxic activities” (Bioorg Med Chem Lett, 2017)
